In test [1] the target is T1, B-cell lymphoma 6 protein (Homo sapiens, UniProt P41182). In words: Inhibition of human BCL6 BTP domain measured by TR-FRET assay. Background: TR-FRET usually uses a lanthanide donor and a delayed reading to cut background.
The target in test [2] is T1, B-cell lymphoma 6 protein. In words: Inhibition of human BCL6 BTP domain measured by fluorescence polarization assay. For orientation: Polarisation of emitted light reports the rotation of a fluorescent probe.
Test [3] has as its target T1, B-cell lymphoma 6 protein. The test is described as follows: Inhibition of human BCL6 BTP domain by ELISA assay.
For test [4], the target named is T1, B-cell lymphoma 6 protein. In words: Binding affinity to human BCL6 BTP domain assessed as dissociation constant by SPR assay. A general note: SPR reads the build-up and loss of mass on a sensor chip optically.
The target in test [5] is T1, B-cell lymphoma 6 protein. The test is described as follows: Inhibition of human BCL6 BTP domain measured by cell reporter assay.
The target of test [6] is Casein kinase II subunit alpha 3 (Homo sapiens, UniProt Q8NEV1). The test is described as follows: Inhibition of CK2 (unknown origin).
Test [7] has as its target T1, B-cell lymphoma 6 protein. The test is described as follows: Irreversible inhibition of human BCL6 BTP domain measured by TR-FRET assay.
The target in test [8] is T1, B-cell lymphoma 6 protein. The test is described as follows: Inhibition of human BCL6 BTP domain.
Test [9] deals with T1, B-cell lymphoma 6 protein. The test is described as follows: Reversible inhibition of human BCL6 BTP domain measured by TR-FRET assay.

These results are taken from BindingDB's records for doi:10.1021/jm9508853 (University of Maryland, 2021).

Sequence of Casein kinase II subunit alpha 3 (Q8NEV1 whole entry, the tested form may be a part): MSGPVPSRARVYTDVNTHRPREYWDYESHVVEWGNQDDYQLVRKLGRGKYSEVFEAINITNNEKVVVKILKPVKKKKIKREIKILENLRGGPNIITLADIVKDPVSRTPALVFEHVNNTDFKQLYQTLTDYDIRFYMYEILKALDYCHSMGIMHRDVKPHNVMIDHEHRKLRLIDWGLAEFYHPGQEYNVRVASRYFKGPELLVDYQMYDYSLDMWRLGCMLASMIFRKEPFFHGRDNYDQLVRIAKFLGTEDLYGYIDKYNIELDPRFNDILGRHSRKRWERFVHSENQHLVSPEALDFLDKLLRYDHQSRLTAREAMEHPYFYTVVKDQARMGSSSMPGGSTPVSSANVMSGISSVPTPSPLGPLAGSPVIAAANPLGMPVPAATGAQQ

As to `Cn1c(=O)n(CCC(C)(C)O)c2cc(Nc3ccnc(Cl)c3C#N)ccc21`, half-maximal inhibition in test [1] (IC50) required 0.86 µM.
In the case of `N#Cc1c(NCc2ccccc2)ccnc1Cl`, the IC50 (in general, the point on the concentration scale where inhibition reaches its midpoint) in test [2] came to 120 µM.
In test [3], `CC(=O)N[C@@H](Cc1c[nH]c2ccccc12)C(=O)N[C@@H](CCCNC(=N)N)C(=O)N[C@H](C(=O)N1CCC[C@H]1C(=O)O)C(C)C` had an IC50 of 170 µM.
In test [2], `N#Cc1c(NCC2CC2)ccnc1Cl` showed an IC50 of 207 µM.
For `CC(C)[C@H](NC(=O)[C@H](CCCNC(=N)N)NC(=O)[C@H](Cc1c[nH]c2ccccc12)NC(=O)[C@@H](N)CO)C(=O)N1CCC[C@H]1C(=O)O`, the IC50 in test [3] was 1500 µM.
Take `N#Cc1cnn2c(Nc3ccc4c(c3)CCC(=O)N4)cc(N3CCC[C@H]3CO)nc12`: the Kd (usually a measure of binding affinity in units of concentration) in [4] worked out at 0.5 µM. This molecule gave an IC50 in test [1] of 0.37 µM.
In the case of `N#Cc1cnn2c(Nc3ccc4c(c3)CCC(=O)N4)cc(N3CCC[C@H]3CC(=O)O)nc12`, the Kd in [4] stood at 1.1 µM. This molecule registered an IC50 in test [1] of 0.35 µM.
As for `N#Cc1cnn2c3cc(nc12)N1C[C@H](C[C@H]1CO)OC/C=C/COc1cc(cc2c1NC(=O)CC2)N3`, the Kd in test [4] was 0.0065 µM. The IC50 in [1] amounted to 0.0029 µM; in [5], 2 µM; in test [6], 0.64 µM.
In the case of `COc1cccc(CN2C(=O)CCc3cc4cc(c32)OC/C=C/CO[C@H]2C[C@@H](CO)N(C2)c2cc(n3ncc(Cl)c3n2)N4)c1`, the IC50 in [6] is > 10 µM.
The molecule `Nc1ncnc(Nc2ccccc2Cl)n1` had an IC50 in test [1] of 830 µM.
On to `O=C1CCc2cc3cc(c2N1Cc1ccccc1)OC/C=C/CO[C@H]1C[C@@H](CO)N(C1)c1cc(n2ncc(Cl)c2n1)N3`, for which the IC50 in [6] is > 10 µM.
For `Nc1ncc(Cl)c(Nc2ccccc2)n1`, in [4], the Kd came out at 68 µM.
As to `Cn1c(=O)n(C)c2cc(Nc3ncccc3C#N)ccc21`, the IC50 in [2] was found to be 86 µM.
`Nc1ncnc(Nc2ccccc2)n1` [Amanozine]: in test [4], the Kd came to 1200 µM.
`CNC(=O)COc1cc2cc(Nc3nc(NCc4cccc(S(=O)(=O)F)c4)ncc3Cl)cc(OC)c2n(C)c1=O` had an IC50 in [7] of 0.152 µM.
`CSCC[C@H](N)C(=O)N[C@@H](CO)C(=O)N[C@@H](Cc1c[nH]c2ccccc12)C(=O)N[C@@H](CCCNC(=N)N)C(=O)N[C@H](C(=O)N1CCC[C@H]1C(=O)O)C(C)C` gave an IC50 in [3] of 620 µM.
As for `CCNc1cc(-c2cccnc2)nc2ccnn12`, the Kd in test [4] was determined as 690 µM.
For the molecule `CNC(=O)COc1cc2cc(Nc3nc(-n4nc(C)cc4C)ncc3Cl)ccc2n(C)c1=O`, half-maximal inhibition in [8] (IC50) was put at 0.012 µM.
As to `Cc1ccccc1CN1C(=O)CCc2cc3cc(c21)OC/C=C/CO[C@H]1C[C@@H](CO)N(C1)c1cc(n2ncc(Cl)c2n1)N3`, in test [6], the IC50 was > 10 µM.
In the case of `CN(c1ncccc1CNc1nc(Nc2ccc3c(c2)CC(=O)N3)ncc1C(F)(F)F)S(C)(=O)=O`, the Kd in test [4] worked out at 88 µM.
`Cc1cc(C)n(-c2ncc(Cl)c(Nc3ccc(Cl)cc3)n2)n1`: the IC50 in [8] was > 20 µM.
For the molecule `O=C1Cc2cc(Nc3nc(NCc4cccc(S(=O)(=O)F)c4)ncc3Cl)ccc2N1`, 0.251 µM corresponded to half-maximal inhibition in [7] (IC50).
For `Cn1c(=O)n(C)c2cc(Nc3cc(SCc4ccccc4)ncn3)ccc21`, inhibition in test [2] was half-maximal at 70 µM (IC50).
For `CNC(=O)COc1cc2cc(Nc3nc(NCc4cccc(S(C)(=O)=O)c4)ncc3Cl)cc(OC)c2n(C)c1=O`, half-maximal inhibition in [9] (IC50) was put at 0.368 µM.
